Data reported in US12344631B2, “C17 polar-substituted heteroaromatic synthetic triterpenoids and methods of use thereof” (REATA PHARMACEUTICALS, INC., priority 2019, dated 2025).

What was measured:
[1] = system: AML-12 hepatocyte cell line; assay: Glutathione assay (total glutathione, GSH-Glo); assay type: cell-based, mouse
Procedure: The effect of compound treatment on total glutathione levels was evaluated in the mouse AML-12 hepatocyte cell line. Glutathione—a tripeptide consisting of cysteine, glutamate, and glycine—is the major thiol-containing protein within the cell and regulates cellular redox balance. Glutathione also plays important roles in detoxification, protein glutathionylation, and iron-sulfur cluster biogenesis (Bachhawat and Yadav, 2018). Nrf2 regulates the expression of many genes involved in glutathione synthesis and metabolism, including both subunits of glutamate cysteine ligase (GCL), the enzyme that catalyzes the rate limiting step of glutathione biosynthesis (Thimmulappa et al., 2002). […] The next day, cells were treated with vehicle (DMSO) or test compound (0.03 nM to 1000 nM). Each well received a final concentration of 0.1% DMSO. Cells were incubated at 37° C., 5% CO2 for 24 hours. Total glutathione concentrations were measured using the GSH-Glo Glutathione Assay kit (Promega) according to the manufacturer's instructions. Briefly, a standard curve was prepared by serially diluting the provided glutathione solution. […] After a 30-minute incubation at room temperature, 100 μL of Luciferin detection reagent was added to all sample and standard wells and incubated for 15 minutes. Luminescence was measured using a PHERAstar plate reader. The EC50 value was determined using Excel and GraphPad Prism software. The basal concentration of glutathione was set to 0% and the highest concentration of glutathione produced following treatment with a test compound was set to 100% and a dose-response curve was generated. The dose-response curve was fit using nonlinear regression analysis and used to extrapolate the EC50 value.

RAW 264.7 cells = assay: Nitric oxide suppression assay (IFNγ-induced NO production); assay type: cell-based, mouse; conditions: for IC50: Mus musculus, RAW264.7, RAW 264.7 cells, 2 h pretreatment, 20 ng/mL interferon gamma 24 h, nitrite by Griess, read-out: NO IC50 (nM) (Mean ± SD); for NO IC50 Relative to RTA 402 (fold) (Mean ± SD): average of ratios from replicate experiments, benchmark RTA 402
Procedure: Tissue Culture. RAW 264.7, a mouse macrophage cell line, was obtained from American Type Culture Collection (Manassas VA) and maintained in the log phase of growth in Roswell Park Memorial Institute Medium 1640 (RPMI 1640) supplemented with 10% heat inactivated fetal bovine serum (FBS) and 1% penicillin-streptomycin. Cells were cultured and maintained in a humidified incubator at 37° C. under 5% CO2. Cells were sub-cultured every 3 days. […] All cell culture supplies were obtained from Life Technologies (Grand Island, NY) and VWR (Radnor, PA). Nitric Oxide Suppression Assay. RAW 264.7 cells were plated 1 day in advance of experimental treatments at a concentration of 30,000 cells per well onto Falcon-96 well clear bottom plates (Corning, NY) in a total volume of 200 μL per well using RPMI 1640 supplemented with 0.5% fetal bovine serum and 1% penicillin-streptomycin. The next day, cells were pretreated with compounds serially diluted from 1000× stocks. All compounds were dissolved in dimethyl sulfoxide (DMSO) at 10 mM stock solutions. Compounds were subsequently diluted in DMSO and RPMI 1640. Each well received a final concentration of 0.1% DMSO. Cells were pretreated for 2 hours and incubation at 37° C., followed by treatment with 20 ng/mL of interferon gamma (R&D Systems, Minneapolis, MN) per well for 24 hours. […] Afterwards, 50 μL of cell culture supernatant was transferred from each well into a new Falcon-96 well clear bottom plate. […] Afterwards, air bubbles were removed using ethanol vapor and absorbance was measured using a Spectramax M2e plate reader with a wavelength set to 525 nm. Viability was assessed using WST-1 cell proliferation reagent from Roche (Basel, Switzerland). After media was removed for the Nitric Oxide suppression assay, 15 μL of WST-1 reagent was added to each well of cells. Plates were briefly mixed on an orbital shaker and the cells were incubated at 37° C. for 30 minutes. Absorbance was measured using a Spectramax M2e plate reader with wavelengths set to 440 nm and 700 nm. For the ability of compounds to suppress the increase in nitric oxide release caused by interferon gamma, the absolute amount of nitrite that was produced in each well was extrapolated from the nitrite standards using a linear regression fit. All values were then normalized to the DMSO-interferon gamma treated wells and plotted as percent nitric oxide. IC50 values were calculated with a dependence on WST1 viability using Excel and/or GraphPad Prism (San Diego, CA).

[2] = system: AREc32 reporter cell line (antioxidant response element of rat Gsta2, Nrf2 target gene); assay: AREc32 luciferase reporter activation; assay type: cell-based, human; conditions: for AREc32 EC2X Relative to RTA 402 (fold) (Mean ± SD): average of ratios from replicate experiments, benchmark RTA 402; for EC (2-fold): human, Arec32, 19 h, concentration increasing luminescence signal 2-fold above vehicle, nineteen hours, read-out: AREc32 EC2X (nM) (Mean ± SD)
Procedure: […] The effect of several compounds disclosed herein on luciferase reporter activation was assessed in the AREc32 reporter cell line (see Table 10 and Table 11). This cell line is derived from human breast carcinoma MCF-7 cells and is stably transfected with a luciferase reporter gene under the transcriptional control of eight copies of the antioxidant response element from the rat Gsta2 gene, an Nrf2 target gene ([…] et al., 1990). […] Twenty-four hours after plating, cells were treated with vehicle (DMSO) or test compounds at concentrations ranging from 0.03 to 1000 nM for nineteen hours. Media was removed and 100 μL of 1:1 mixture of the One-Glo Luciferase assay reagent and culture medium was added to each well. After incubation for 5 min at room temperature, the luminescence signal was measured on a PHERAstar plate reader. The EC2X value was determined using Excel and GraphPad Prism software. The fold increase in luminescence signal for cells treated with each concentration of compound relative to cells treated with vehicle was determined and a dose-response curve was generated. The dose-response curve was fit using nonlinear regression analysis and used to extrapolate the EC2X value.

SMILES | EC50 ([1]; Mus musculus, AML12, AML-12 cells, 24 hours, total glutathione, read-out: GSH EC50 (nM) (Mean ± SD)) | GSH EC50 Relative to RTA 402 (fold) (Mean ± SD) ([1]; benchmark RTA 402) | IC50 (RAW 264.7 cells) [nM] | NO IC50 Relative to RTA 402 (fold) (Mean ± SD) (RAW 264.7 cells) | AREc32 EC2X Relative to RTA 402 (fold) (Mean ± SD) [2] | EC (2-fold) [2] [nM]
CC1(C)CC[C@]2(c3nnn(CCO)n3)CC[C@]3(C)[C@H](C(=O)C=C4[C@@]5(C)C=C(C#N)C(=O)C(C)(C)[C@@H]5CC[C@]43C)[C@@H]2C1 [Compound T7] | 2.87 ± 3.17 | 0.80 ± 0.59 | 1.13 ± 0.18 | 0.43 ± 0.13 | 1.10 ± 0.33 | 10.5 ± 3.66
CC1(C)CC[C@]2(c3nc(CO)no3)CC[C@]3(C)[C@H](C(=O)C=C4[C@@]5(C)C=C(C#N)C(=O)C(C)(C)[C@@H]5CC[C@]43C)[C@@H]2C1 [Compound T42] | – | – | 0.44 | 0.32 | 0.26 | 2.58
CC1(C)CC[C@]2(c3nc(CC4CC4)no3)CC[C@]3(C)[C@H](C(=O)C=C4[C@@]5(C)C=C(C#N)C(=O)C(C)(C)[C@@H]5CC[C@]43C)[C@@H]2C1 [Compound T30] | – | – | 4.82 | 2.97 | 4.19 | 64.5
CCCc1noc([C@]23CCC(C)(C)C[C@H]2[C@H]2C(=O)C=C4[C@@]5(C)C=C(C#N)C(=O)C(C)(C)[C@@H]5CC[C@@]4(C)[C@]2(C)CC3)n1 [Compound T26] | – | – | 7.82 | 4.83 | – | –
CC(=O)OCCn1nnc([C@]23CCC(C)(C)C[C@H]2[C@H]2C(=O)C=C4[C@@]5(C)C=C(C#N)C(=O)C(C)(C)[C@@H]5CC[C@@]4(C)[C@]2(C)CC3)n1 [Compound T8] | – | – | 0.64 | 0.41 | – | –
CC1(C)CC[C@]2(c3nc(C4CCC4)no3)CC[C@]3(C)[C@H](C(=O)C=C4[C@@]5(C)C=C(C#N)C(=O)C(C)(C)[C@@H]5CC[C@]43C)[C@@H]2C1 [Compound T31] | – | – | 9.34 | 5.76 | – | –
CC1(C)CC[C@]2(c3nc(C(C)(C)C)no3)CC[C@]3(C)[C@H](C(=O)C=C4[C@@]5(C)C=C(C#N)C(=O)C(C)(C)[C@@H]5CC[C@]43C)[C@@H]2C1 [Compound T28] | – | – | 22.3 | 13.75 | – | –
CC(=O)OCCc1noc([C@]23CCC(C)(C)C[C@H]2[C@H]2C(=O)C=C4[C@@]5(C)C=C(C#N)C(=O)C(C)(C)[C@@H]5CC[C@@]4(C)[C@]2(C)CC3)n1 [Compound T14] | – | – | 0.48 | 0.31 | – | –
COCCn1nnc([C@]23CCC(C)(C)C[C@H]2[C@H]2C(=O)C=C4[C@@]5(C)C=C(C#N)C(=O)C(C)(C)[C@@H]5CC[C@@]4(C)[C@]2(C)CC3)n1 [Compound T9] | – | – | 1.27 | 0.82 | – | –
CC1(C)CC[C@]2(c3nc(C4CCCCC4)no3)CC[C@]3(C)[C@H](C(=O)C=C4[C@@]5(C)C=C(C#N)C(=O)C(C)(C)[C@@H]5CC[C@]43C)[C@@H]2C1 [Compound T33] | – | – | 25.6 | 15.81 | – | –
COCCc1noc([C@]23CCC(C)(C)C[C@H]2[C@H]2C(=O)C=C4[C@@]5(C)C=C(C#N)C(=O)C(C)(C)[C@@H]5CC[C@@]4(C)[C@]2(C)CC3)n1 [Compound T15] | – | – | 0.6 ± 0.05 | 0.38 ± 0.04 | – | –
CC(=O)NCCc1noc([C@]23CCC(C)(C)C[C@H]2[C@H]2C(=O)C=C4[C@@]5(C)C=C(C#N)C(=O)C(C)(C)[C@@H]5CC[C@@]4(C)[C@]2(C)CC3)n1 [Compound T19] | – | – | 0.94 | 0.60 | – | –
COC(=O)NCCc1noc([C@]23CCC(C)(C)C[C@H]2[C@H]2C(=O)C=C4[C@@]5(C)C=C(C#N)C(=O)C(C)(C)[C@@H]5CC[C@@]4(C)[C@]2(C)CC3)n1 [Compound T17] | – | – | 0.75 | 0.48 | – | –
CC1(C)CC[C@]2(c3nc(C4CCCC4)no3)CC[C@]3(C)[C@H](C(=O)C=C4[C@@]5(C)C=C(C#N)C(=O)C(C)(C)[C@@H]5CC[C@]43C)[C@@H]2C1 [Compound T32] | – | – | 20.8 | 12.84 | – | –
CC1(C)CC[C@]2(c3nc(C4CC4)no3)CC[C@]3(C)[C@H](C(=O)C=C4[C@@]5(C)C=C(C#N)C(=O)C(C)(C)[C@@H]5CC[C@]43C)[C@@H]2C1 [Compound T29] | – | – | 4.03 | 2.49 | 2.84 | 43.7
CCNC(=O)NCCc1noc([C@]23CCC(C)(C)C[C@H]2[C@H]2C(=O)C=C4[C@@]5(C)C=C(C#N)C(=O)C(C)(C)[C@@H]5CC[C@@]4(C)[C@]2(C)CC3)n1 [Compound T18] | – | – | 1.33 | 0.86 | – | –
CC(C)c1noc([C@]23CCC(C)(C)C[C@H]2[C@H]2C(=O)C=C4[C@@]5(C)C=C(C#N)C(=O)C(C)(C)[C@@H]5CC[C@@]4(C)[C@]2(C)CC3)n1 [Compound T27] | – | – | 6.03 | 3.72 | – | –
Cc1nnc([C@]23CCC(C)(C)C[C@H]2[C@H]2C(=O)C=C4[C@@]5(C)C=C(C#N)C(=O)[C@@H](C)[C@@H]5CC[C@@]4(C)[C@]2(C)CC3)o1 [CC4, reference compound] | – | – | 0.66 ± 0.06 | 0.51 ± 0.02 | – | 8.12 ± 3.53
C[C@@H]1C(=O)C(C#N)=C[C@]2(C)C3=CC(=O)[C@@H]4[C@@H]5CC(C)(C)CC[C@]5(c5nnc(CF)o5)CC[C@@]4(C)[C@]3(C)CC[C@@H]12 [Compound T38] | – | – | 0.46 ± 0.02 | 0.20 ± 0.02 | 0.43 ± 0.14 | 3.95 ± 1.12
C[C@@H]1C(=O)C(C#N)=C[C@]2(C)C3=CC(=O)[C@@H]4[C@@H]5CC(C)(C)CC[C@]5(c5noc(CF)n5)CC[C@@]4(C)[C@]3(C)CC[C@@H]12 [Compound T39] | – | – | 1.98 | 0.42 | 0.20 | 1.88
